Results reported in patent US7250397B2, “Antiarrhythmic peptides” (Zealand Pharma A/S, priority 2000, dated 2007).

How the values were obtained:
[1] = tested on: isolated perfused rabbit hearts; experiment: Isolated perfused rabbit hearts (Langendorff), APD90 dispersion
[2] = tested on: isolated guinea pig myocytes; experiment: Intercellular conductance Gj (GJIC), double patch clamp of cardiomyocyte pairs; type: cell-based; conditions: 10^−8 M
Protocol: Cell preparation: Cells were isolated from guinea pig hearts by perfusion with collagenase according to the Langendorf method. In brief, guinea pigs were heparinised with an intraperitoneal injection of heparin (1000 IU/kg). After 30 minutes the animal was sacrificed by a blow to the neck followed by cutting the spine at the neck. The chest was opened and the aorta cannulated. Then the cannula was fixed to the aorta by a ligature, exised and perfused with Tyrodes solution for a couple of minutes. The Tyrodes solution had the following composition in mM: Na^+ 135.33, K^+ 4, Cl^− 145, PO4^− 0.33, Mg^2+ 1, Ca^2+ 2, Hepes 10, Glucose 10, pH 7.4. All perfusion media were bubled by 100% oxygen. […]. Then the heart was perfused with high K^+ solution with 0.6 mg/ml collagenase, this was done for 10-15 minutes judged from the apperance of the heart. The atria were cut off, the ventricles minced, whereafter the pieces were stirred in the collagenase solution by gently bubbling with 100% oxygen. […]
Where Ip,pulse and Ip,rest represent the current in the passive cell during the pulse and before the pulse respectively, and Up and Ua represent the voltage of the passive and active cell. […] However, the change in Gj value to a standardized intervention like a drug can be analysed by comparing the relative changes in Gj.

ROS 17/2.8 cells = experiment: Lucifer Yellow dye transfer in ROS 17/2.8 cells; type: cell-based, rat; conditions: after 48 hours in 3-6% O2 (9 cells before)
Protocol: ROS 17/2.8 cells: Cells were cultured in 100 mm dishes at 37° C. with 5% CO2 and medium change every 2-3 days. ROS medium (all reagents obtained from Life Technologies) MEM (Cat.No. 31095) supplemented with 10% heat-inactivated calf serum (Cat.No. 16170), 1% NEAA (Cat.No. 11140), 1% Sodium Pyruvate (Cat.No. 11360), 1% L-Glutamine (Cat.No. 25030) and 0.1% Penicillin/Streptomycin (Cat.No. 15140). For video imaging experiments, cells were plated on coverslips at 2-3×10^5 cells/coverslip and cultured for 2-3 days before use.
The cells cultured on coverslips were placed in the microscope as described above. Microinjections were performed using the Eppendorf 5171 micromanipulator and the Eppendorf Transjector 5346 system. A micropipette was loaded with a 10 mM Lucifer Yellow (LY) solution (Sigma, Cat.No. L-0259). […] The excitation light for LY was 430 nm, and images were acquired as described above.
Similar experiments were performed with ROS cells. Basic coupling under physiological conditions in ROS cells was 12 cells (n=19). After 48 hours incubation in 3-6% O2, a reduction in dye transfer was seen to 9 cells (n=27).

[3] = tested on: calcium-induced arrythmias; experiment: Calcium-induced arrhythmia model in mice; type: in vivo; conditions: mouse, in vivo, iv
Protocol: The antiarrhythmic effects of compounds of this invention were tested in an in vivo model of calcium-induced arrythmias according to the model of Lynch et al.^[37]. […]. Commercial solutions of hypnorm and midazolam were diluted 1:1 in distilled water and one part diluted Hypnorm® is mixed with one part diluted midazolam.
The anaesthesia was induced by s.c. administration in a dose of 0.05-0.075 μl/10 gram mouse. An i.v cannula was inserted into the tail vein. The lead II ECG signal was recorded continuously by positioning of a stainless steel ECG electrodes on the right forelimb and on the left hind limb. The ground electrode was placed on the right hind limb. The signal was amplified (x 5.000-10.000) and filtered (0.1-150 Hz) via a Hugo Sachs Electronic model 689 ECG module. The analogue signal was digitised via a 12 bit data acquisition board (Data Translation model DT321) and sampled at 1000 Hz using the Notocord HEM 3.1 software for Windows NT. After a 10-min equilibration period, the test sample of drug was injected into the tail vein. Mice pre-treated with vehicle were tested as a measure of the control level in untreated animals. The injection volume was 100 μl in all experiments. Infusion of CaCl2 (30 mg/ml, 0.1 ml/min≈100 mg/kg/min (calciumchlorid-2-hydrat, Riedel-de Häen, Germany)) was started 3 min after i.v. administration of drug or vehicle. The time lag to onset of 2nd degree AV-block was determined as the time from the start of CaCl2 infusion until the first arrhythmic event occured. An event of 2nd degree AV-block was defined as intermittent failure of the AV conduction characterised by a P-wave without the concomitant QRS complex.
Responses were expressed relative to the time until 2nd degree AV-block occurred in vehicle treated mice.

## Ac-D-Tyr-D-Pro-D-4Hyp-Gly-D-Ala-Gly-NH2 [Compound 2]
[1]
  increase in APD90 dispersion during hypokalemic, acute myocardial ischemia: prevented
[2]
  time of stimulation until steady-state level of Gj: about 400 seconds
ROS 17/2.8 cells
  average dye transfer, number of cells: 12 cells
[3]
  In vivo activity: +++ (key: +++: >60% increase in time until arrhythmia; ++: 30-50% increase in time until arrhythmia; +: 15-29% increase in time until arrhythmia; (+): ≦15% increase in time until arrythmia)
